Laboratory results from patent US9914969B2, “Fads regulation” (CORNELL UNIVERSITY, priority 2012, dated 2018).
Entries after “also recorded” stand apart in the source; their conditions may differ.

Assays:
FADS2 expression = FADS2 expression in lymphoblasts after drug treatment (qRT-PCR); assay type: cell-based, human; conditions: 24 hours
Experimental: Immortalized B-lymphocyte (lymphoblast) cell lines from Japanese HapMap participants were obtained from the Coriell Institute for Medical Research, and used within 10 passages of receipt from the repository. Cells were grown in RPMI 1640 with 2 mM L-alanyl-glutamine (Sigma) and 15% fetal bovine serum (media and serum obtained from HyClone) in a humidified environment at 37° C. with 5% CO2. All experiments were conducted on cells grown and treated in parallel in identical media and growth conditions. […]
Quantitative real-time PCR was carried out using SYBR Green Master Mix (Roche) on a LightCycler 480 instrument (Roche). PCR primers were obtained from Integrated DNA Technologies (sequences available upon request), except for 18S, which was obtained from Qiagen as a QuantiTect Primer Assay. PCR reaction efficiency was calculated from standard curves, and reactions were assessed by both melting curves and by running on agarose gels to verify reaction products and the absence of primer-dimers. Quantitative cycle (Cq) values were determined using LightCycler 480 SW1.5.0SP3 software, version 1.5.0.39 (Roche). […] Statistical significance of differences in fold changes between genotypes in response to cell treatments (normalized to vehicle treatment for each genotype) was assessed by the Mann-Whitney U test. […]

FADS1 expression = FADS1 expression in lymphoblasts after drug treatment (qRT-PCR); assay type: cell-based, human; conditions: 24 hours; for FADS1 response to drug, D/D vs I/I haplotype homozygotes (in words): lymphoblasts, 1 μNI GW3965, 20 μM rosiglitazone
Experimental: Immortalized B-lymphocyte (lymphoblast) cell lines from Japanese HapMap participants were obtained from the Coriell Institute for Medical Research, and used within 10 passages of receipt from the repository. Cells were grown in RPMI 1640 with 2 mM L-alanyl-glutamine (Sigma) and 15% fetal bovine serum (media and serum obtained from HyClone) in a humidified environment at 37° C. with 5% CO2. All experiments were conducted on cells grown and treated in parallel in identical media and growth conditions. […] RNA was extracted using the RNeasy kit (Qiagen), and RNA quality was checked by agarose gel electrophoresis to verify RNA integrity and by 260/280 nm ratios on a NanoDrop 2000 (Thermo Scientific). cDNA was prepared using the High Capacity cDNA Reverse Transcription Kit (Applied Biosystems) according to the manufacturer's protocol.
Quantitative real-time PCR was carried out using SYBR Green Master Mix (Roche) on a LightCycler 480 instrument (Roche). PCR primers were obtained from Integrated DNA Technologies (sequences available upon request), except for 18S, which was obtained from Qiagen as a QuantiTect Primer Assay. PCR reaction efficiency was calculated from standard curves, and reactions were assessed by both melting curves and by running on agarose gels to verify reaction products and the absence of primer-dimers. Quantitative cycle (Cq) values were determined using LightCycler 480 SW1.5.0SP3 software, version 1.5.0.39 (Roche). […] Statistical significance of differences in fold changes between genotypes in response to cell treatments (normalized to vehicle treatment for each genotype) was assessed by the Mann-Whitney U test. Bootstrapping and randomization techniques were used in REST 2009 software (Qiagen) to calculate significance of fold changes normalizing both genotypes to basal expression in I/I allele homozygotes.
Follow-up experiments were carried out in Japanese HapMap lymphoblast cell lines homozygous for the D/D haplotype associated with FADS1 expression, or homozygous for the I/I haplotype. All available D/D haplotype homozygote cell lines were used (n=5), as well as randomly chosen I/I allele homozygote cell lines (n=11).
To investigate the possibility of a causal genetic variation in a transcription factor binding site, cells were treated with drugs acting directly or indirectly on PPARγ or SREBP-1c.

[1] = 5 μNI simvastatin, normalized to vehicle

Compound: O=C(O)Cc1cccc(OCCCN(Cc2cccc(C(F)(F)F)c2Cl)CC(c2ccccc2)c2ccccc2)c1 [GW3965]
- FADS2 expression increase in D/D haplotype homozygotes compared with I/I (in words) (FADS2 expression; lymphoblasts, normalized to vehicle): even more
- upregulation (induction) of FADS1 higher for the D/D haplotype than for I/I (FADS1 expression; D/D vs I/I haplotype homozygote lymphoblasts, 5 μNI simvastatin, 1 μNI GW3965): 25%
- final FADS1 expression after treatment, difference between genotypes (in words) (FADS1 expression; D/D vs I/I lymphoblasts, normalized to basal I/I expression): did not significantly differ; also recorded: no longer significantly different
- upregulation of FADS1 (FADS1 expression; I/I haplotype homozygote lymphoblasts, 5 μNI simvastatin, 1 μNI GW3965, normalized to vehicle): about two
- FADS1 response to drug, D/D vs I/I haplotype homozygotes (in words) (FADS1 expression; [1]): significantly greater fold increase

Compound: CN(CCOc1ccc(CC2SC(=O)NC2=O)cc1)c1ccccn1 (stereo not shown) [rosiglitazone]
- FADS2 response to treatment (in words) (FADS2 expression; I/I and D/D lymphoblasts, 20 μM rosiglitazone): no response
- FADS1 response to drug, D/D vs I/I haplotype homozygotes (in words) (FADS1 expression; [1]): no response
